Experiment [1] has as its target human Adenosine A1 receptor (Homo sapiens (Human), UniProt P30542). In words: Adenosine receptor TR-FRET binding assay (A1). The note with it: inhibition of binding of 100 nM CA200645, CHO cell membranes. The procedure:
(§1) Biological Example 1—Adenosine Receptor Time-Resolved Fluorescence Resonance Energy Transfer (TRFRET) Binding Assay
(§2) All FRET binding experiments were conducted at room temperature in white 384-well plates, in assay binding buffer containing 1×LabMed (Cisbio, France), 100 μg/mL saponin, 1% DMSO and 0.02% pluronic acid. Binding of the fluorescently labelled Adenosine receptor antagonist XAC (CA200645, FRET acceptor) to terbium-labelled A1, A2a, A2b and A3 adenosine receptors (FRET donors) was detected by time-resolved FRET due to the close proximity of the donor and acceptor in a binding event. To investigate the ability of unlabelled test compounds to bind to Adenosine A1, A2a, A2b and A3 receptors, dose response curves were constructed that determined the ability of a range of concentrations to inhibit the binding of 30 nM CA200645 to the A2b receptor and 100 nM CA200645 to the A1, A2a, and A3 receptor.
(§3) Serial dilution (1:3 dilutions) of test compounds in neat DMSO and transfer of a 400 nL sample of test compound into the assay plate was carried out using the Mosquito (TTP Labtech, UK). The compound samples were incubated for 2 hours at room temperature with a fixed concentration of CA200645 defined for each receptor (see above) and CHO cell membranes containing the human Adenosine A1 (0.5 μg/well), A2a (0.3 μg/well), A2b (1 μg/well) or A3 (1 μg/well) receptor in 40 μL of assay buffer. Total and non-specific binding of CA200645 was determined in the absence and presence of 10 μM XAC, respectively. Following 2 hours incubation, the level of CA200645 binding was detected on a Pherastar FSX (BMG Labtech, Germany) using standard TR-FRET settings. The terbium donor was excited with three laser flashes at a wavelength of 337 nm, and donor and acceptor emission was detected at 620 nm and 665 nm wavelengths, respectively. FRET ratios were obtained by multiplying the acceptor/donor ratio value by 10,000. Specific binding was determined by subtracting the non-specific binding FRET ratio from the total binding FRET ratio. Compound IC50 curves were analysed using GraphPad Prism 7.0 (GraphPad, USA) and Ki affinity values were determined from the obtained IC50 values using the method of Cheng and Prusoff.

For experiment [2], the target named is human Adenosine A2a receptor (Homo sapiens (Human), UniProt P29274). As to the kind of experiment: Adenosine receptor TR-FRET binding assay (A2a). The note with it: inhibition of binding of 100 nM CA200645, CHO cell membranes. The procedure:
as §1, §2, §3
For orientation: Time-resolved FRET reads energy transfer from a long-lived donor to a nearby acceptor.

In experiment [3] the target is human Adenosine A2b receptor (Homo sapiens (Human), UniProt P29275). As to the kind of experiment: Adenosine receptor TR-FRET binding assay (A2b). As to the method:
as §1, §2, §3

The target in experiment [4] is human Adenosine A3 receptor (Homo sapiens (Human), UniProt P0DMS8). In words: Adenosine receptor TR-FRET binding assay (A3). The settings on record: inhibition of binding of 100 nM CA200645, CHO cell membranes. As to the method: as §1, §2, §3
[5] abbreviates: TR-FRET, inhibition of binding of 30 nM CA200645, CHO cell membranes.

For 20 compounds, Ki results are on record in patent publication US20230293517A1, “ANTAGONIST COMPOUNDS” (AdoRx Therapeutics Limited, priority 2020, published 2023).

The term Ki denotes a measure of affinity in units of concentration, obtained from inhibition or displacement.

Structures can show the parent of a compound that is named as a salt. Where two headings read alike, the source gives them in different places.

Chain of human Adenosine A3 receptor (P0DMS8 whole entry): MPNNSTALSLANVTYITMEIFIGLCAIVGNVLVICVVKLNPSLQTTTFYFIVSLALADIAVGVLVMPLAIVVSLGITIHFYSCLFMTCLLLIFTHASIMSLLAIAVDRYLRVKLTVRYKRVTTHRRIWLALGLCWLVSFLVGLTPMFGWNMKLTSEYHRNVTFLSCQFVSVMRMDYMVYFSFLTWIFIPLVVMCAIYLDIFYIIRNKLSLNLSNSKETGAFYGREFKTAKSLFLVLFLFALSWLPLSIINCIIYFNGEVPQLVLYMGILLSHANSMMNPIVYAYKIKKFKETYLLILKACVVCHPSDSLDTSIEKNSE
Chain of human Adenosine A1 receptor (P30542 whole entry): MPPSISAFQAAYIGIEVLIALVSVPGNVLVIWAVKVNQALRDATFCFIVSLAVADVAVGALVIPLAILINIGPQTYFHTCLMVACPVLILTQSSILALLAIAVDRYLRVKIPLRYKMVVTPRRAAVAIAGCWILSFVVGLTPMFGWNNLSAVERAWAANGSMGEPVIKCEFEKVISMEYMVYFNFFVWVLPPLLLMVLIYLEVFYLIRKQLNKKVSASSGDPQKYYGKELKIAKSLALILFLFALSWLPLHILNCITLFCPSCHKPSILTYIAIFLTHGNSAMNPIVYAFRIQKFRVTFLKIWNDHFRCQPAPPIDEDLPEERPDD
Chain of human Adenosine A2a receptor (P29274 whole entry): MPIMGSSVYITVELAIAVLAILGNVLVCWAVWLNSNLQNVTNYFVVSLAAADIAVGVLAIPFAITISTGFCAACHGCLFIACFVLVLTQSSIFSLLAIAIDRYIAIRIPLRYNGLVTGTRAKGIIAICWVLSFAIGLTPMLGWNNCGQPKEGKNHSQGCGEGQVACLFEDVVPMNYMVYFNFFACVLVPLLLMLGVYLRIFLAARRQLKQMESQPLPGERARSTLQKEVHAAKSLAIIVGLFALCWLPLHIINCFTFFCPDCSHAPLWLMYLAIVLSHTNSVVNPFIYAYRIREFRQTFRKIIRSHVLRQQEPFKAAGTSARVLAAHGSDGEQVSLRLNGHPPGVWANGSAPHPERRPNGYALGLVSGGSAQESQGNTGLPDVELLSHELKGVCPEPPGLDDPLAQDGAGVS
Chain of human Adenosine A2b receptor (P29275 whole entry): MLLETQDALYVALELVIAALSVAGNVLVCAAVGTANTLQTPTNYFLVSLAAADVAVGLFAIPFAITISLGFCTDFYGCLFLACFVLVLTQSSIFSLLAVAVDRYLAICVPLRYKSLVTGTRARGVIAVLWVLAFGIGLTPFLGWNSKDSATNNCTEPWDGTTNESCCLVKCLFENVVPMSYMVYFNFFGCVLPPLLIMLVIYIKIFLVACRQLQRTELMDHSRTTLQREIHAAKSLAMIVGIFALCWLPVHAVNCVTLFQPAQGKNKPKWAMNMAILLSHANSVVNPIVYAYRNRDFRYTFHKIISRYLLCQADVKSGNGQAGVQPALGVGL

Take `Cc1cc(-c2sc(NC(=O)N3CCC(n4cccn4)CC3)nc2-c2cccc(C#N)c2)cc(C)n1` [Example 6.21, N-[4-(3-Cyanophenyl)-5-(2,6-dimethyl-4-pyridyl)thiazol-2-yl]-4-pyrazol-1-yl-piperidine-1-carboxamide]: the Ki in experiment [1] came to 6 nM; in experiment [2], 0.86 nM; in experiment [3] (setting [5]) it was 1.3 nM; in experiment [4], 96 nM.
As for `Cc1cc(-c2sc(NC(=O)N3C[C@@H]4NCCO[C@@H]4C3)nc2-c2cccc(C#N)c2)cc(C(F)F)n1` (racemic) [Example 14.2, rac-(4aS,7aR)—N-[4-(3-Cyanophenyl)-5-[2-(difluoromethyl)-6-methyl-4-pyridyl]thiazol-2-yl]-3,4,4a,5,7,7a-hexahydro-2H-pyrrolo[3,4-b][1,4]oxazine-6-carboxamide 2,2,2-trifluoroacetic acid salt], the Ki in experiment [1] stood at 183 nM; in experiment [2] it was 2.09 nM; in experiment [3], 8.3 nM; in experiment [4], 132 nM.
Turning to `Cc1cc(-c2sc(NC(=O)N3CCN[C@H](C(=O)O)C3)nc2-c2cccc(C#N)c2)cc(Cl)n1` [Example 3.5], the Ki amounted to 434 nM in experiment [1], 11.6 nM in experiment [2], 11.4 nM in experiment [3] (setting [5]) and 928 nM in experiment [4].
In the same order, the values of `Cc1cc(-c2sc(NC(=O)N3CCO[C@@H](CO)C3)nc2-c2cccc(C#N)c2)cc(C)n1` [Example 4.16, (2R)-N-[4-(3-Cyanophenyl)-5-(2,6-dimethyl-4-pyridyl)thiazol-2-yl]-2-(hydroxymethyl)morpholine-4-carboxamide] are 41 nM, 0.9 nM, 2.2 nM and 265 nM.
Regarding `Cc1cc(-c2sc(NC(=O)N3C[C@@H]4NCCO[C@H]4C3)nc2-c2cccc(C#N)c2)cc(C(F)F)n1` (racemic) [Example 14.1, rac-(4aS,7aS)—N-[4-(3-Cyanophenyl)-5-[2-(difluoromethyl)-6-methyl-4-pyridyl]thiazol-2-yl]-3,4,4a,5,7,7a-hexahydro-2H-pyrrolo[3,4-b][1,4]oxazine-6-carboxamide 2,2,2-trifluoroacetic acid salt], the Ki in experiment [1] amounted to 41 nM; in experiment [2], 2.67 nM; in experiment [3], 8.6 nM; in experiment [4], 112 nM.
Turning to `Cc1cc(-c2sc(NC(=O)N3CCOCC3)nc2-c2cccc(C#N)c2)cc(Cl)n1` [Example 1, N-[5-(2-Chloro-6-methyl-4-pyridyl)-4-(3-cyanophenyl)thiazol-2-yl]morpholine-4-carboxamide], the Ki was 9 nM in experiment [1], 0.42 nM in experiment [2], 1.1 nM in experiment [3] (setting [5]) and 305 nM in experiment [4].
The like results for `Cc1cc(-c2sc(NC(=O)N3CC4(COC4)C3)nc2-c2cccc(C#N)c2)cc(C(C)C)n1` [Example 16.8] were, in that order, 6 nM, 0.13 nM, 1.1 nM and 537 nM.
Turning to `Cc1cc(-c2sc(NC(=O)N3CCN[C@@H](C(C)(C)O)C3)nc2-c2cccc(C#N)c2)cc(Cl)n1` [Example 3.10], the Ki in experiment [1] amounted to 135 nM; in experiment [2], 8.17 nM; in experiment [3] (setting [5]), 12.2 nM; in experiment [4], 144 nM.
The like results for `Cc1cc(-c2sc(NC(=O)N3CC[C@H](C(N)=O)C3)nc2-c2cccc(C#N)c2)cc(C)n1` [Example 6.3, (3S)-N1-[4-(3-Cyanophenyl)-5-(2,6-dimethyl-4-pyridyl)thiazol-2-yl]pyrrolidine-1,3-dicarboxamide] were, in that order, 32 nM, 0.87 nM, 1.5 nM and 125 nM.
In the same order, the values of `Cc1cc(-c2sc(NC(=O)N3C[C@@H]4C[C@H]3CN4C)nc2-c2cccc(C#N)c2)cc(C)n1` [Example 6.102, (1S,4S)-N-[4-(3-Cyanophenyl)-5-(2,6-dimethyl-4-pyridyl)thiazol-2-yl]-5-methyl-2,5-diazabicyclo[2.2.1]heptane-2-carboxamide] are 64 nM, 7.42 nM, 10.5 nM and 195 nM.
The like results for `Cc1cc(-c2sc(NC(=O)N3CCC(S(C)(=O)=O)CC3)nc2-c2cccc(C#N)c2)cc(C)n1` [Example 6.95, N-[4-(3-Cyanophenyl)-5-(2,6-dimethyl-4-pyridyl)thiazol-2-yl]-4-methylsulfonyl-piperidine-1-carboxamide] were, in that order, 29 nM, 1.05 nM, 4.6 nM and 560 nM.
For `Cc1cc(-c2sc(NC(=O)N3CCC4(CC3)CN(C)C(=O)N4)nc2-c2cccc(C#N)c2)cc(C)n1` [Example 6.103, N-[4-(3-Cyanophenyl)-5-(2,6-dimethyl-4-pyridyl)thiazol-2-yl]-3-methyl-2-oxo-1,3,8-triazaspiro[4.5]decane-8-carboxamide], the inhibition constant Ki in experiment [1] worked out at 61 nM; in experiment [2], 0.68 nM; in experiment [3] (setting [5]) it was 1.7 nM; in experiment [4], 475 nM.
In the same order, the values of `Cc1cc(-c2sc(NC(=O)N3CCN4C(=O)CN(C)C(=O)C4C3)nc2-c2cccc(C#N)c2)cc(C)n1` (centres unmarked) [Example 6.39, N-[4-(3-Cyanophenyl)-5-(2,6-dimethyl-4-pyridyl)thiazol-2-yl]-8-methyl-6,9-dioxo-3,4,7,9a-tetrahydro-1H-pyrazino[1,2-a]pyrazine-2-carboxamide] are 383 nM, 10.1 nM, 39.6 nM and 389 nM.
The like results for `Cc1cc(-c2sc(NC(=O)N3CCOC[C@@H]3C)nc2-c2cccc(C#N)c2)cc(C)n1` [Example 6.86, (3S)-N-[4-(3-Cyanophenyl)-5-(2,6-dimethyl-4-pyridyl)thiazol-2-yl]-3-methyl-morpholine-4-carboxamide] were, in that order, 2 nM, 0.68 nM, 1.9 nM and 181 nM.
In the case of `Cc1cc(-c2sc(NC(=O)N3CCC4(CN(C)CCO4)C3)nc2-c2cccc(C#N)c2)cc(C(F)F)n1` (centres unmarked) [Example 6.107, N-[4-(3-Cyanophenyl)-5-[2-(difluoromethyl)-6-methyl-4-pyridyl]thiazol-2-yl]-9-methyl-6-oxa-2,9-diazaspiro[4.5]decane-2-carboxamide], the Ki in experiment [1] was determined as 69 nM; in experiment [2], 1.37 nM; in experiment [3] (setting [5]), 2.3 nM; in experiment [4] it was 156 nM.
The like results for `Cc1cc(-c2sc(NC(=O)N3CC[S+]([O-])CC3)nc2-c2cccc(C#N)c2)cc(CO)n1` [Example 9.3] were, in that order, 29 nM, 1.11 nM, 8.1 nM and 1510 nM.
The like results for `Cc1cc(-c2sc(NC(=O)N3CCN4C(=O)CCCC4C3)nc2-c2cccc(C#N)c2)cc(C)n1` (centres unmarked) [Example 6.43, N-[4-(3-Cyanophenyl)-5-(2,6-dimethyl-4-pyridyl)thiazol-2-yl]-6-oxo-3,4,7,8,9,9a-hexahydro-1H-pyrido[1,2-a]pyrazine-2-carboxamide] were, in that order, 51 nM, 1.12 nM, 8.2 nM and 175 nM.
The like results for `Cc1cc(-c2sc(NC(=O)N3C[C@H]4COC[C@H]4C3)nc2-c2cccc(C#N)c2)cc(C)n1` [Example 6.49, (3aR,6aS)-N-[4-(3-Cyanophenyl)-5-(2,6-dimethyl-4-pyridyl)thiazol-2-yl]-1,3,3a,4,6,6a-hexahydrofuro[3,4-c]pyrrole-5-carboxamide] were, in that order, 51 nM, 1.27 nM, 2.2 nM and 324 nM.
On to `Cc1cc(-c2sc(NC(=O)N3CCn4ccnc4C3)nc2-c2cccc(C#N)c2)cc(C)n1` [Example 6.27, N-[4-(3-Cyanophenyl)-5-(2,6-dimethyl-4-pyridyl)thiazol-2-yl]-6,8-dihydro-5H-imidazo[1,2-a]pyrazine-7-carboxamide], for which the Ki in experiment [1] stood at 45 nM; in experiment [2], 1.01 nM; in experiment [3] (setting [5]) it was 1.4 nM; in experiment [4], 151 nM.
In the same order, the values of `Cc1cc(-c2sc(NC(=O)N3CC[C@H]3C(C)(C)O)nc2-c2cccc(C#N)c2)cc(C)n1` [Example 6.82, (2S)-N-[4-(3-Cyanophenyl)-5-(2,6-dimethyl-4-pyridyl)thiazol-2-yl]-2-(1-hydroxy-1-methyl-ethyl)azetidine-1-carboxamide] are 116 nM, 3.67 nM, 5.1 nM and 246 nM.
